Legend:
Test in all cases: relative viability (nuclei count vs DMSO), 5 days (fraction); higher = more cells survive
Doramapimod + Luminespib = compound: Cc1ccc(-n2nc(C(C)(C)C)cc2NC(=O)Nc2ccc(OCCN3CCOCC3)c3ccccc23)cc1 [Doramapimod] + CCNC(=O)c1noc(-c2cc(C(C)C)c(O)cc2O)c1-c1ccc(CN2CCOCC2)cc1 [Luminespib] (partner 0.01 µM)
In short: (§1)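 Cells from lung cancer lines were seeded into 1536-well plates and, one day later, dosed by pin tool. Treatments were either a single drug or a fixed dose of an anchor drug with five library-drug doses (not always all listed) in √10 steps. After 5 days, nuclei were stained in a one-step fixation (final 0.05% Triton X-100, 1% formaldehyde, 1 ug/ml Hoechst) and counted on 4× images, and relative viability is the treated-to-vehicle nuclei ratio, as the median of duplicate plates.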

IPA-3 + Pemetrexed = compound: C1=CC=C2C(=C1)C=CC(=C2SSC3=C(C=CC4=CC=CC=C43)O)O [IPA-3] + Nc1nc2[nH]cc(CCc3ccc(C(=O)N[C@@H](CCC(=O)O)C(=O)O)cc3)c2c(=O)[nH]1 [Pemetrexed] (partner 0.2 µM)
In short: as §1

Doramapimod + AZD7762 = compound: Cc1ccc(-n2nc(C(C)(C)C)cc2NC(=O)Nc2ccc(OCCN3CCOCC3)c3ccccc23)cc1 [Doramapimod] + NC(=O)Nc1cc(-c2cccc(F)c2)sc1C(=O)N[C@H]1CCCNC1 [AZD7762] (partner 0.2 µM)
In short: as §1

IPA-3 + Trametinib = compound: C1=CC=C2C(=C1)C=CC(=C2SSC3=C(C=CC4=CC=CC=C43)O)O [IPA-3] + CC(=O)Nc1cccc(-n2c(=O)n(C3CC3)c(=O)c3c(Nc4ccc(I)cc4F)n(C)c(=O)c(C)c32)c1 [Trametinib] (partner 0.02 µM)
In short: as §1

NCI-H1793
relative viability (Doramapimod + Luminespib; first compound 0.02 µM): 0.157
relative viability (Doramapimod + Luminespib; first compound 0.06325 µM): 0.174
relative viability (Doramapimod + Luminespib; first compound 0.2 µM): 0.144
relative viability (Doramapimod + Luminespib; first compound 0.6325 µM): 0.23
relative viability (Doramapimod + Luminespib; first compound 2 µM): 0.161
relative viability (IPA-3 + Pemetrexed; first compound 0.2 µM): 1.33
relative viability (IPA-3 + Pemetrexed; first compound 0.6325 µM): 0.736
relative viability (IPA-3 + Pemetrexed; first compound 2 µM): 0.927
relative viability (IPA-3 + Pemetrexed; first compound 6.325 µM): 0.923
relative viability (IPA-3 + Pemetrexed; first compound 20 µM): 0.632
relative viability (Doramapimod + AZD7762; first compound 0.02 µM): 0.381
relative viability (Doramapimod + AZD7762; first compound 0.06325 µM): 0.326
relative viability (Doramapimod + AZD7762; first compound 0.2 µM): 0.523
relative viability (Doramapimod + AZD7762; first compound 0.6325 µM): 0.321
relative viability (Doramapimod + AZD7762; first compound 2 µM): 0.243
relative viability (IPA-3 + Trametinib; first compound 0.2 µM): 0.456
relative viability (IPA-3 + Trametinib; first compound 0.6325 µM): 0.373
relative viability (IPA-3 + Trametinib; first compound 2 µM): 0.448
relative viability (IPA-3 + Trametinib; first compound 6.325 µM): 0.376
relative viability (IPA-3 + Trametinib; first compound 20 µM): 0.437

NCI-H3122
relative viability (Doramapimod + Luminespib; first compound 0.02 µM): 0.11
relative viability (Doramapimod + Luminespib; first compound 0.06325 µM): 0.0996
relative viability (Doramapimod + Luminespib; first compound 0.2 µM): 0.108
relative viability (Doramapimod + Luminespib; first compound 0.6325 µM): 0.0726
relative viability (Doramapimod + Luminespib; first compound 2 µM): 0.092
relative viability (IPA-3 + Pemetrexed; first compound 0.2 µM): 0.189
relative viability (IPA-3 + Pemetrexed; first compound 0.6325 µM): 0.197
relative viability (IPA-3 + Pemetrexed; first compound 2 µM): 0.192
relative viability (IPA-3 + Pemetrexed; first compound 6.325 µM): 0.207
relative viability (IPA-3 + Pemetrexed; first compound 20 µM): 0.211
relative viability (Doramapimod + AZD7762; first compound 0.02 µM): 1.11
relative viability (Doramapimod + AZD7762; first compound 0.06325 µM): 1.09
relative viability (Doramapimod + AZD7762; first compound 0.2 µM): 1.05
relative viability (Doramapimod + AZD7762; first compound 0.6325 µM): 1
relative viability (Doramapimod + AZD7762; first compound 2 µM): 1.12
relative viability (IPA-3 + Trametinib; first compound 0.2 µM): 0.294
relative viability (IPA-3 + Trametinib; first compound 0.6325 µM): 0.227
relative viability (IPA-3 + Trametinib; first compound 2 µM): 0.262
relative viability (IPA-3 + Trametinib; first compound 6.325 µM): 0.255
relative viability (IPA-3 + Trametinib; first compound 20 µM): 0.216

PC-14
relative viability (Doramapimod + Luminespib; first compound 0.02 µM): 0.146
relative viability (Doramapimod + Luminespib; first compound 0.06325 µM): 0.196
relative viability (Doramapimod + Luminespib; first compound 0.2 µM): 0.18
relative viability (Doramapimod + Luminespib; first compound 0.6325 µM): 0.159
relative viability (Doramapimod + Luminespib; first compound 2 µM): 0.152
relative viability (IPA-3 + Pemetrexed; first compound 0.2 µM): 0.123
relative viability (IPA-3 + Pemetrexed; first compound 0.6325 µM): 0.132
relative viability (IPA-3 + Pemetrexed; first compound 2 µM): 0.135
relative viability (IPA-3 + Pemetrexed; first compound 6.325 µM): 0.124
relative viability (IPA-3 + Pemetrexed; first compound 20 µM): 0.132
relative viability (Doramapimod + AZD7762; first compound 0.02 µM): 0.521
relative viability (Doramapimod + AZD7762; first compound 0.06325 µM): 0.539
relative viability (Doramapimod + AZD7762; first compound 0.2 µM): 0.353
relative viability (Doramapimod + AZD7762; first compound 0.6325 µM): 0.378
relative viability (Doramapimod + AZD7762; first compound 2 µM): 0.325
relative viability (IPA-3 + Trametinib; first compound 0.2 µM): 1.23
relative viability (IPA-3 + Trametinib; first compound 0.6325 µM): 0.654
relative viability (IPA-3 + Trametinib; first compound 2 µM): 0.699
relative viability (IPA-3 + Trametinib; first compound 6.325 µM): 0.634
relative viability (IPA-3 + Trametinib; first compound 20 µM): 0.918

EPLC-272H
relative viability (Doramapimod + Luminespib; first compound 0.02 µM): 0.368
relative viability (Doramapimod + Luminespib; first compound 0.06325 µM): 0.296
relative viability (Doramapimod + Luminespib; first compound 0.2 µM): 0.741
relative viability (Doramapimod + Luminespib; first compound 0.6325 µM): 0.494
relative viability (Doramapimod + Luminespib; first compound 2 µM): 0.187
relative viability (IPA-3 + Pemetrexed; first compound 0.2 µM): 0.415
relative viability (IPA-3 + Pemetrexed; first compound 0.6325 µM): 0.309
relative viability (IPA-3 + Pemetrexed; first compound 2 µM): 0.337
relative viability (IPA-3 + Pemetrexed; first compound 6.325 µM): 0.355
relative viability (IPA-3 + Pemetrexed; first compound 20 µM): 0.371
relative viability (Doramapimod + AZD7762; first compound 0.02 µM): 0.209
relative viability (Doramapimod + AZD7762; first compound 0.06325 µM): 0.209
relative viability (Doramapimod + AZD7762; first compound 0.2 µM): 0.254
relative viability (Doramapimod + AZD7762; first compound 2 µM): 0.22
relative viability (IPA-3 + Trametinib; first compound 0.2 µM): 0.327
relative viability (IPA-3 + Trametinib; first compound 0.6325 µM): 0.337
relative viability (IPA-3 + Trametinib; first compound 2 µM): 0.273
relative viability (IPA-3 + Trametinib; first compound 6.325 µM): 0.301
relative viability (IPA-3 + Trametinib; first compound 20 µM): 0.319

A-427
relative viability (Doramapimod + Luminespib; first compound 0.02 µM): 0.979
relative viability (Doramapimod + Luminespib; first compound 0.06325 µM): 0.806
relative viability (Doramapimod + Luminespib; first compound 0.2 µM): 1.08
relative viability (Doramapimod + Luminespib; first compound 2 µM): 0.918
relative viability (IPA-3 + Pemetrexed; first compound 0.2 µM): 1.06
relative viability (IPA-3 + Pemetrexed; first compound 0.6325 µM): 1.01
relative viability (IPA-3 + Pemetrexed; first compound 2 µM): 0.998
relative viability (IPA-3 + Pemetrexed; first compound 6.325 µM): 0.903
relative viability (IPA-3 + Pemetrexed; first compound 20 µM): 0.982
relative viability (Doramapimod + AZD7762; first compound 0.02 µM): 0.77
relative viability (Doramapimod + AZD7762; first compound 0.06325 µM): 0.732
relative viability (Doramapimod + AZD7762; first compound 0.2 µM): 0.743
relative viability (Doramapimod + AZD7762; first compound 2 µM): 0.561
relative viability (IPA-3 + Trametinib; first compound 0.2 µM): 0.798
relative viability (IPA-3 + Trametinib; first compound 0.6325 µM): 0.769
relative viability (IPA-3 + Trametinib; first compound 2 µM): 0.705
relative viability (IPA-3 + Trametinib; first compound 6.325 µM): 0.629
relative viability (IPA-3 + Trametinib; first compound 20 µM): 0.732

— the supplement of paper PMC10307832
